Reference: patent US8871934B2, “Fluorene compound and pharmaceutical use thereof” (Japan Tobacco Inc., priority 2008, dated 2014)
Where two headings read alike, the source gives them in different places.

Target: human PDHK2 (hPDHK2) (Homo sapiens (Human), UniProt Q15119)
Experiment: Inhibitory action of PDHK activity in vitro (kinase reaction, residual PDH activity measured)
Format: biochemical
[1] = PDHK inhibitory activity, class symbol of IC50
[2] = read-out: PDHK inhibitory activity IC50

With `O=C(c1ccc2c(c1)C(O)(C(F)(F)F)c1ccccc1-2)N1CCCCC1` (centres unmarked) [compound 52] the IC50 [1] was greater than 1 µM and the IC50 [2] was 4.01 µM.

With `O=C(c1ccc2c(c1)C(O)(C(F)(F)F)c1ccccc1-2)N1CCCC1` (centres unmarked) [compound 53] the IC50 [1] was 0.1 to 1 µM and the IC50 [2] was 0.567 µM.

`CCN(CC)C(=O)c1ccc2c(c1)C(O)(C(F)(F)F)c1ccccc1-2` (centres unmarked) [compound 54] was tested, and the IC50 [1] was greater than 1 µM and the IC50 [2] was 21.9 µM.

Work on `Nc1ccc2c(c1)C(O)(C(F)(F)F)c1ccccc1-2` (centres unmarked) [compound 55] yielded an IC50 [1] greater than 1 µM and an IC50 [2] of 19.8 µM.

Work on `CN(C(=O)c1ccc2c(c1)C(O)(C(F)(F)F)c1ccccc1-2)c1ccccc1` (centres unmarked) [compound 56] yielded an IC50 [1] greater than 1 µM and an IC50 [2] greater than 100 µM.

`CN(C(=O)c1ccc2c(c1)C(O)(C(F)(F)F)c1ccccc1-2)C1CCC1` (centres unmarked) [compound 57] was tested, and the IC50 [1] was greater than 1 µM and the IC50 [2] was 5.62 µM.

With `O=C(c1ccc2c(c1)C(O)(C(F)(F)F)c1ccccc1-2)N1CCC1` (centres unmarked) [compound 58] the IC50 [1] was 0.1 to 1 µM and the IC50 [2] was 0.195 µM.

`CCCOC(=O)c1cccc2c1-c1ccccc1C2(O)C(F)(F)F` (centres unmarked) [compound 59] gave an IC50 [1] of 0.1 to 1 µM and an IC50 [2] of 0.772 µM.

Compound `CC(C)OC(=O)c1cccc2c1-c1ccccc1C2(O)C(F)(F)F` (centres unmarked) [compound 60] has an IC50 [1] greater than 1 µM and an IC50 [2] of 2.04 µM.

`COC(=O)c1cc(Cl)c2c(c1)C(O)(C(F)(F)F)c1ccccc1-2` (centres unmarked) [compound 61] showed an IC50 [1] of 0.1 to 1 µM and an IC50 [2] of 0.294 µM.

`Oc1ccc2c(c1)-c1ccccc1C2(O)C(F)(F)F` (centres unmarked) [compound 62] showed an IC50 [1] greater than 1 µM and an IC50 [2] of 15.7 µM.

Compound `Oc1cccc2c1-c1ccccc1C2(O)C(F)(F)F` (centres unmarked) [compound 63] has an IC50 [1] greater than 1 µM and an IC50 [2] of 8.48 µM.

`OC1(C(F)(F)F)c2ccccc2-c2c(C(F)(F)F)cccc21` (centres unmarked) [compound 64] was tested, and the IC50 [1] was greater than 1 µM and the IC50 [2] was 18 µM.

Compound `CON(C)C(=O)c1cccc2c1-c1ccccc1C2(O)C(F)(F)F` (centres unmarked) [compound 65] has an IC50 [1] greater than 1 µM and an IC50 [2] greater than 100 µM.

`CCOc1cccc2c1-c1ccccc1C2(O)C(F)(F)F` (centres unmarked) [compound 66] gave an IC50 [1] greater than 1 µM and an IC50 [2] of 66.3 µM.

With `CCOc1ccc2c(c1)-c1ccccc1C2(O)C(F)(F)F` (centres unmarked) [compound 67] the IC50 [1] was greater than 1 µM and the IC50 [2] was 4.2 µM.

`CC(=O)c1cccc2c1-c1ccccc1C2(O)C(F)(F)F` (centres unmarked) [compound 68] gave an IC50 [1] of 0.1 to 1 µM and an IC50 [2] of 0.624 µM.

For `OCc1ccc2c(c1)C(O)(C(F)(F)F)c1ccccc1-2` (centres unmarked) [compound 69], the IC50 [1] was greater than 1 µM and the IC50 [2] was 16 µM.

`CCCc1ccc2c(c1)C(O)(C(F)(F)F)c1ccccc1-2` (centres unmarked) [compound 70] gave an IC50 [1] greater than 1 µM and an IC50 [2] of 2.21 µM.

`CC(C)c1ccc2c(c1)C(O)(C(F)(F)F)c1ccccc1-2` (centres unmarked) [compound 71] showed an IC50 [1] greater than 1 µM and an IC50 [2] of 10.2 µM.

`CCNC(=O)c1ccc2c(c1)-c1ccccc1C2(O)C(F)(F)F` (centres unmarked) [compound 72] showed an IC50 [1] greater than 1 µM and an IC50 [2] of 4.42 µM.

`CC(C)NC(=O)c1ccc2c(c1)-c1ccccc1C2(O)C(F)(F)F` (centres unmarked) [compound 73] was tested, and the IC50 [1] was greater than 1 µM and the IC50 [2] was 4.81 µM.

For `OCc1cccc2c1-c1ccccc1C2(O)C(F)(F)F` (centres unmarked) [compound 74], the IC50 [1] was greater than 1 µM and the IC50 [2] was 3.32 µM.

Work on `COCc1ccc2c(c1)C(O)(C(F)(F)F)c1ccccc1-2` (centres unmarked) [compound 75] yielded an IC50 [1] greater than 1 µM and an IC50 [2] of 6.78 µM.

`CC(=O)c1ccc2c(c1)C(O)(C(F)(F)F)c1ccccc1-2` (centres unmarked) [compound 76] was tested, and the IC50 [1] was greater than 1 µM and the IC50 [2] was 1.75 µM.

`CC1CCCN1C(=O)c1ccc2c(c1)C(O)(C(F)(F)F)c1ccccc1-2` (centres unmarked) [compound 77] was tested, and the IC50 [1] was greater than 1 µM and the IC50 [2] was 2.5 µM.

For `O=C(c1ccc2c(c1)C(O)(C(F)(F)F)c1ccccc1-2)N1CC1` (centres unmarked) [compound 78], the IC50 [1] was greater than 1 µM and the IC50 [2] was 1.36 µM.

`O=C(c1ccc2c(c1)C(O)(C(F)(F)F)c1ccccc1-2)N1CC(O)C1` (centres unmarked) [compound 79] was tested, and the IC50 [1] was 0.1 to 1 µM and the IC50 [2] was 0.696 µM.

`CN(C)c1ccc2c(c1)C(O)(C(F)(F)F)c1ccccc1-2` (centres unmarked) [compound 80] was tested, and the IC50 [1] was greater than 1 µM and the IC50 [2] was 8.25 µM.

In the case of `CCC(=O)c1cccc2c1-c1ccccc1C2(O)C(F)(F)F` (centres unmarked) [compound 81], the IC50 [1] is reported as greater than 1 µM and the IC50 [2] is reported as 2.76 µM.

For `COCc1cccc2c1-c1ccccc1C2(O)C(F)(F)F` (centres unmarked) [compound 82], the IC50 [1] was greater than 1 µM and the IC50 [2] was 67.3 µM.

`O=C(c1cccc2c1-c1ccccc1C2(O)C(F)(F)F)C1CC1` (centres unmarked) [compound 83] gave an IC50 [1] greater than 1 µM and an IC50 [2] of 1.14 µM.

With `CN(C)c1cccc2c1-c1ccccc1C2(O)C(F)(F)F` (centres unmarked) [compound 84] the IC50 [1] was greater than 1 µM and the IC50 [2] was 42.1 µM.

Work on `CNc1cccc2c1-c1ccccc1C2(O)C(F)(F)F` (centres unmarked) [compound 85] yielded an IC50 [1] greater than 1 µM and an IC50 [2] of 23.1 µM.

With `COC1CN(C(=O)c2ccc3c(c2)C(O)(C(F)(F)F)c2ccccc2-3)C1` (centres unmarked) [compound 86] the IC50 [1] was 0.1 to 1 µM and the IC50 [2] was 0.378 µM.

Compound `O=C(c1ccc2c(c1)C(O)(C(F)(F)F)c1ccccc1-2)N1CC(CO)C1` (centres unmarked) [compound 87] has an IC50 [1] of 0.1 to 1 µM and an IC50 [2] of 0.669 µM.

For `CC1CN(C(=O)c2ccc3c(c2)C(O)(C(F)(F)F)c2ccccc2-3)C1` (centres unmarked) [compound 88], the IC50 [1] was greater than 1 µM and the IC50 [2] was 2.53 µM.

`CCOc1ccc2c(c1)C(O)(C(F)(F)F)c1ccccc1-2` (centres unmarked) [compound 89] was tested, and the IC50 [1] was greater than 1 µM and the IC50 [2] was 2.15 µM.

`CC1CCN1C(=O)c1ccc2c(c1)C(O)(C(F)(F)F)c1ccccc1-2` (centres unmarked) [compound 90] showed an IC50 [1] of 0.1 to 1 µM and an IC50 [2] of 0.474 µM.

In the case of `Cc1cc(C(=O)N2CCC2)cc2c1-c1ccccc1C2(O)C(F)(F)F` (centres unmarked) [compound 91], the IC50 [1] is reported as less than 0.1 µM and the IC50 [2] is reported as 0.072 µM.

With `OC1(C(F)(F)F)c2ccccc2-c2c(-c3cnco3)cccc21` (centres unmarked) [compound 92] the IC50 [1] was 0.1 to 1 µM and the IC50 [2] was 0.405 µM.

`CC(C)C(=O)c1cccc2c1-c1ccccc1C2(O)C(F)(F)F` (centres unmarked) [compound 93] was tested, and the IC50 [1] was greater than 1 µM and the IC50 [2] was 29.5 µM.

For `O=C(c1cc(Cl)c2c(c1)C(O)(C(F)(F)F)c1ccccc1-2)N1CCC1` (centres unmarked) [compound 94], the IC50 [1] was less than 0.1 µM and the IC50 [2] was 0.049 µM.

`CNc1ccc2c(c1)C(O)(C(F)(F)F)c1ccccc1-2` (centres unmarked) [compound 95] gave an IC50 [1] greater than 1 µM and an IC50 [2] of 7.83 µM.

`CC(=O)N(C)c1ccc2c(c1)C(O)(C(F)(F)F)c1ccccc1-2` (centres unmarked) [compound 96] was tested, and the IC50 [1] was greater than 1 µM and the IC50 [2] was 6.57 µM.

For `OC1(C(F)(F)F)c2ccccc2-c2ccc(-c3ccccc3)cc21` (centres unmarked) [compound 97], the IC50 [1] was 0.1 to 1 µM and the IC50 [2] was 0.849 µM.

In the case of `O=C(c1ccccc1)c1ccc2c(c1)C(O)(C(F)(F)F)c1ccccc1-2` (centres unmarked) [compound 98], the IC50 [1] is reported as greater than 1 µM and the IC50 [2] is reported as 2.42 µM.

`O=C(c1ccc2c(c1)C(O)(C(F)(F)F)c1ccccc1-2)c1cccs1` (centres unmarked) [compound 99] gave an IC50 [1] of 0.1 to 1 µM and an IC50 [2] of 0.718 µM.

`CCC(=O)Nc1ccc2c(c1)-c1ccccc1C2(O)C(F)(F)F` (centres unmarked) [compound 100] was tested, and the IC50 [1] was greater than 1 µM and the IC50 [2] was 6.15 µM.

Work on `CC(C)C(=O)Nc1ccc2c(c1)-c1ccccc1C2(O)C(F)(F)F` (centres unmarked) [compound 101] yielded an IC50 [1] greater than 1 µM and an IC50 [2] of 10.3 µM.

`OC1(C(F)(F)F)c2ccccc2-c2ccc(-c3cccnc3)cc21` (centres unmarked) [compound 102] gave an IC50 [1] of 0.1 to 1 µM and an IC50 [2] of 0.323 µM.

With `OC1(C(F)(F)F)c2ccccc2-c2ccc(-c3ccncc3)cc21` (centres unmarked) [compound 103] the IC50 [1] was 0.1 to 1 µM and the IC50 [2] was 0.151 µM.

`CCOC1CN(C(=O)c2ccc3c(c2)C(O)(C(F)(F)F)c2ccccc2-3)C1` (centres unmarked) [compound 104] showed an IC50 [1] of 0.1 to 1 µM and an IC50 [2] of 0.279 µM.

Work on `CCCOC1CN(C(=O)c2ccc3c(c2)C(O)(C(F)(F)F)c2ccccc2-3)C1` (centres unmarked) [compound 105] yielded an IC50 [1] of 0.1 to 1 µM and an IC50 [2] of 0.259 µM.

Compound `COCCOC1CN(C(=O)c2ccc3c(c2)C(O)(C(F)(F)F)c2ccccc2-3)C1` (centres unmarked) [compound 106] has an IC50 [1] of 0.1 to 1 µM and an IC50 [2] of 0.461 µM.
